Five molecules from patent US11166958B2, “4-pyrazin-2-ylmethyl-morpholine derivatives and the use thereof as medicament” (Boehringer Ingelheim International GmbH, priority 2018, dated 2021) can be followed below.

One test has as its target NMDA NR1/NR2B receptor (Homo sapiens (Human), UniProt Q13224). Put plainly: In vitro NMDA NR1/NR2B cell assay (FLIPR, intracellular calcium induced by glycine/glutamate). The conditions noted are these: HEK293 NR1/NR2B, 20 μM glycine / 1 μM glutamate, read-out: In vitro NR2B affinity, IC50. Type of test: cell-based. As for the experimental part: A human HEK293 cell line with tetracyclin-inducible expression of NMDA NR1/NR2B receptor was used as a test system for compound efficacy and potency. The cell line was purchased from ChanTest, Catalog #CT6121. Compound activity was determined by measuring the effect of compounds on intracellular calcium concentration induced by glycine/glutamate agonism in a FLIPRtetra system (Molecular Devices).
The cells were obtained as frozen cells in cryo-vials and stored until use at −150° C. Cells were grown in culture medium (DMEM/F12, 10% FBS, 5 μg/mL Blasticidin, 150 μg/mL Zeozin, 500 μg/mL Geneticin). […] For sub-culturing the cells were detached from flasks by Versene. For the assay, cells were detached, washed twice with induction medium (DMEM/F12 without glutamine, 10% FBS, 2 μg/mL Tetracycline, 2 mM Ketamine) and seeded to 384 well pure coat amine plates (Becton Dickinson, 50000 cells per well in 50 μl) 48 h prior to assay in induction medium.
The test compounds were dissolved in 100% DMSO at a concentration of 10 mM and in a first step diluted in DMSO to a concentration of 5 mM, followed by serial dilution steps in 100% DMSO. Dilution factor and number of dilution steps may vary according to needs. Typically 8 different concentrations by 1:5 dilutions were prepared in duplicate, further intermediate dilutions (1:37.5) of the substances were carried out with aqueous assay buffer (137 mM NaCl, 4 mM KCl, 1.8 mM CaCl2), 10 mM HEPES, 10 mM Glucose, pH 7.4) resulting in a compound concentration 3 times above the final test concentration and DMSO at 2.7% resulting in 0.9% final DMSO concentration in the assay.
At the assay day cells were washed 3× with assay buffer (as described above), 10 μL buffer remained in the wells after washing. 10 μL Ca kit loading buffer (AAT Bioquest; prepared from the kit containing the following components: Component A: Fluo-8 NW dissolved in 200 μL DMSO and 20 μl of this solution are mixed with 10 ml buffer prepared out of component B and C, Component B: 10× Pluronic® F127 Plus diluted 1:10 in component C, Component C: HHBS (Hanks with 20 mM Hepes) was added to the cells and the plates were incubated with lid for 60 minutes at room temperature. 20 μl assay buffer containing 60 μM glycine (20 μM final) and 3 μM glutamate (1 μM final) was added to column 1-23, column 24 got assay buffer without glycine/glutamate to serve as negative unstimulated control. Fluorescence (indicating the calcium influx as a result of the NR1/NR2B ion channel activation) was read on the FLIPRtetra device for 60 seconds to monitor the glutamate induced effects. After 2 minutes 20 μL of compound dilution prepared as described above or controls (row 1-22) in assay buffer were carefully added to the wells. […] The average of 2 measurements at 5 minutes and 5 min 10 seconds after compound addition is calculated and further used for IC50 calculations. Each assay microtiter compound dilution plate contained wells (in column 23 or 24) with DMSO controls instead of compound as controls for glycine/glutamate induced fluorescence (high controls) and wells with 1 μM of a reference NR2B NAM as low controls (Compound 22; reference: Layton, Mark E et al, ACS Chemical Neuroscience 2011, 2(7), 352-362).
The output file of the reader contains the well number and measured average fluorescence units. For data evaluation and calculation, the measurement of the low control was set as 0% control and the measurement of the high control was set as 100% control. The IC50 values were calculated using the standard 4 parameter logistic regression formula. Calculation: [y=(a−d)/(1+(x/c)^b)+d], a=low value, d=high value; x=conc M; c=IC50 M; b=slope.

For another test, the target named is Nav1.6 channel (Homo sapiens (Human), UniProt Q9UQD0). As to the kind of experiment: Nav1.6 inhibition, IonWorks Quattro electrophysiology. Type of test: cell-based. As for the experimental part:
IonWorks Quattro electrophysiological platform
The compounds were prepared in DMSO at 300× the final assay concentrations of 1 and 5 μM.
The 300× DMSO stock solutions were transferred into assay plates where 2 μl per well of each 300× stock solution were placed. All assay plates were stored at −80° C. until the day of assay.
On the day of the assay, the appropriate assay plate was thawed at room temperature, centrifuged, and 198 μl of external recording solution was added and mixed thoroughly. This provided a 1:100 dilution. A further 1:3 dilution occurred upon addition to the cells in the IonWorks Quattro electrophysiological platform, giving a 1:300 dilution in total. On each assay plate, at least 8 wells were reserved for vehicle control (0.3% DMSO) and at least 8 wells for each positive control specific to the cell line tested. The positive controls were tested at a maximal blocking and an approximate IC50 concentration. As positive control Lidocaine at concentrations of 30 and 1000 μM was used.
The solutions for recording Nav1.6 currents were as follows:
Amphotericin B was used to obtain electrical access to the cell interior at a final concentration of 200 μg/ml in internal recording solution.
State-dependent inhibition: Sodium channels when held at depolarized potential or long test pulse, the channels open and inactivate and then stay inactivated until the membrane potential is stepped back to hyperpolarized potentials, when the inactivated channels recover from inactivation into closed state.
Cells were held at −120 mV. In order to completely inactivate the sodium channels (pulse 1), the cells were pulsed to +0 mV for 2500 ms and stepped back to −120 mV for 10 ms (to completely recover from inactivation, however channels that had drugs bound to them will not recover from inactivation) before stepping to +0 mV for 20 ms (pulse 2).
Assay Control Results Both the positive and vehicle control data associated with each cell line assayed are shown below as an example. The mean is shown for each positive and negative control as solid symbol with the total number of individual well replicates given next to the solid symbol. In addition, the individual data of each well are shown on the graph as open symbols so that the variation about the mean value can be readily assessed.
Shown below are the assay controls for the Nav1.6 IonWorks Quattro assay.
Tables 3 and 4 show the normalized percentage inhibition of Nav1.6 channel. […] (see also the figure Assay Control Results above).

Each structure is given as a SMILES string.

Sequence of NMDA NR1/NR2B receptor (Q13224 27-1484, other chains not shown): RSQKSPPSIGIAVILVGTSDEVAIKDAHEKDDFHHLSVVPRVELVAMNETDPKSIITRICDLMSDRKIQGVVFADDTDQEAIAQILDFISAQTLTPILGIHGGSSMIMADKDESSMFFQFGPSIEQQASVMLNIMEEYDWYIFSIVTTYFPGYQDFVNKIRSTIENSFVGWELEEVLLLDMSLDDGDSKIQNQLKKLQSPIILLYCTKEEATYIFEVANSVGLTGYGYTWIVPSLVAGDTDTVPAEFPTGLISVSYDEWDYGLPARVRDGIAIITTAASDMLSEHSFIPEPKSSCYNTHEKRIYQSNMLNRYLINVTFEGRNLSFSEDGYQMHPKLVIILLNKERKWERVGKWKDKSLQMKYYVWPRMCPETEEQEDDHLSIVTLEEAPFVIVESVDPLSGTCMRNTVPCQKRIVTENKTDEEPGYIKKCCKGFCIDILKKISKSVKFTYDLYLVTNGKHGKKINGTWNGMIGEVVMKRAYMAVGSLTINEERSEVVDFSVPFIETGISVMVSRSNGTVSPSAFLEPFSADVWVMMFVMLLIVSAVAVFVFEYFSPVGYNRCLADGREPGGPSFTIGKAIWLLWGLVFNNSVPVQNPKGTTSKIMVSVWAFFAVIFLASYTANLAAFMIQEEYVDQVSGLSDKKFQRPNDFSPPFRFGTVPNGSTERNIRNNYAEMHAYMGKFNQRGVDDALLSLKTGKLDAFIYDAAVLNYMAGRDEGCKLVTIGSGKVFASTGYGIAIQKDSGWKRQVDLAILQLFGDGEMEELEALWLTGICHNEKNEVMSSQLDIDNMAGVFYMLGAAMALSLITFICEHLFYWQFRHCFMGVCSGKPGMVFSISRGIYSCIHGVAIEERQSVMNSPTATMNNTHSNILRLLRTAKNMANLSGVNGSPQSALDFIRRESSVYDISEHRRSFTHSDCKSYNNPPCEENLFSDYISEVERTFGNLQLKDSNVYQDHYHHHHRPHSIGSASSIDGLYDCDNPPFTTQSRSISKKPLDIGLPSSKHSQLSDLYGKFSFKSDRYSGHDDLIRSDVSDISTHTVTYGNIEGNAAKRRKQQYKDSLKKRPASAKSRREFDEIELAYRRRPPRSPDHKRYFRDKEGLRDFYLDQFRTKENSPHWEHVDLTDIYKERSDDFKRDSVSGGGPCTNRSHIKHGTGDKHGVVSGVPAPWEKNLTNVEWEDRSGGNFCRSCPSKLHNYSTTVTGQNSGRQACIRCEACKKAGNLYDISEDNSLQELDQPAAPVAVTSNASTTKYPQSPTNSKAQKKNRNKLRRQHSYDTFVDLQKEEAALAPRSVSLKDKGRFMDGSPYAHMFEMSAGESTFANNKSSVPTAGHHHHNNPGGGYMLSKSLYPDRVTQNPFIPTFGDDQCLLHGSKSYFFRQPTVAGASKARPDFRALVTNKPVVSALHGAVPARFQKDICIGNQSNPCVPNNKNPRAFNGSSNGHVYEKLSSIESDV
Sequence of Nav1.6 channel (Q9UQD0 whole entry): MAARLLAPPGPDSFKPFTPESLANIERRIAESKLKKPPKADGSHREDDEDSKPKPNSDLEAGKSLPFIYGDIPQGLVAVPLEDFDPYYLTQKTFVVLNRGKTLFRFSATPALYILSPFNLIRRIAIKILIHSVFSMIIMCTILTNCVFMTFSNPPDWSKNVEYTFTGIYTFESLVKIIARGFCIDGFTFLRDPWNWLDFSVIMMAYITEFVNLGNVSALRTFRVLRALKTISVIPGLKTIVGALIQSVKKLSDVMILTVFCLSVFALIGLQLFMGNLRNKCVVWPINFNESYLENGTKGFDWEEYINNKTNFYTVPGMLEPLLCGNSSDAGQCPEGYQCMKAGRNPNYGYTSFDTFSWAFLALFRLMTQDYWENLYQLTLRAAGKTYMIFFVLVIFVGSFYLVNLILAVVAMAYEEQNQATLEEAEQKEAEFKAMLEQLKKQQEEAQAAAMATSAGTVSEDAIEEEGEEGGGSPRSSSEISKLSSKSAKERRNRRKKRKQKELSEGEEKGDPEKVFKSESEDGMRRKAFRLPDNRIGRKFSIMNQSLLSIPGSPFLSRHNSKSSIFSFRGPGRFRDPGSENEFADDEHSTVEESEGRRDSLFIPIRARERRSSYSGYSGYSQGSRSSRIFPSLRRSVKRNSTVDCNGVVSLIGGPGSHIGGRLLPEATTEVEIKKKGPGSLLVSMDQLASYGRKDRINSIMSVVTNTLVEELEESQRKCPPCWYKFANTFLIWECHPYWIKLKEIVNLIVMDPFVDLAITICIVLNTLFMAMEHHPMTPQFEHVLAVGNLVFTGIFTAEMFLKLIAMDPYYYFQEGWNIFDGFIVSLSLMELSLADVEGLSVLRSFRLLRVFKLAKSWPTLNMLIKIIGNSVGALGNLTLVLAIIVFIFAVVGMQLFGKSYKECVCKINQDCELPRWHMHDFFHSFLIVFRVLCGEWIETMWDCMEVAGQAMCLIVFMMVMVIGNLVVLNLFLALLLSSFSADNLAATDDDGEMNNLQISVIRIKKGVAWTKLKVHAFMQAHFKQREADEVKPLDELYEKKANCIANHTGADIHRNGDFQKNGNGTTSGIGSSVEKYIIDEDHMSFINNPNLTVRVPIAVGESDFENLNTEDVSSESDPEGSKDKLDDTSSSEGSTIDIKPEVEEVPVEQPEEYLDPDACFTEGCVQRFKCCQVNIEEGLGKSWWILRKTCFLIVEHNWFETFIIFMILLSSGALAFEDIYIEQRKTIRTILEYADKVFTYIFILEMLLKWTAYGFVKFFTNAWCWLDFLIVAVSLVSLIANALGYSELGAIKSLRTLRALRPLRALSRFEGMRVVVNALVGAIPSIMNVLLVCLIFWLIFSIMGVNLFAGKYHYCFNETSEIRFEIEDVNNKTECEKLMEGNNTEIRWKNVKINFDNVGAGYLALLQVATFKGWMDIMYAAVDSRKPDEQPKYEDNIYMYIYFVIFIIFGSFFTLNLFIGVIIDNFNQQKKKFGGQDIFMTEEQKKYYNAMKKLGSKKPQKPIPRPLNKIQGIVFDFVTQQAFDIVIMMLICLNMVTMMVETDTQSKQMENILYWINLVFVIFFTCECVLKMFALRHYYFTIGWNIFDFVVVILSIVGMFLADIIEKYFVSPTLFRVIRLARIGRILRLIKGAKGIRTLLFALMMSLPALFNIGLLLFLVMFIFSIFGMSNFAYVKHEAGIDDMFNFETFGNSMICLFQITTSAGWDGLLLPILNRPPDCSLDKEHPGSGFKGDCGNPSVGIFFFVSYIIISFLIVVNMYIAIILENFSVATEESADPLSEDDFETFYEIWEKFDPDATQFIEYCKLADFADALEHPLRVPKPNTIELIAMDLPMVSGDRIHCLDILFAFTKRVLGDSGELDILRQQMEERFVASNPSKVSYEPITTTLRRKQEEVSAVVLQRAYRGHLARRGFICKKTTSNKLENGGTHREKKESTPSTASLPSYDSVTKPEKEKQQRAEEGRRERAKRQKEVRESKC

In the case of `CNC(=O)[C@@H]1CN(Cc2cnc(Oc3ccccc3)cn2)CCO1` [Example 34], the IC50 on NMDA NR1/NR2B receptor was found to be 644 nM.

Take `CNC(=O)[C@@H]1CN(Cc2cnc(Oc3c(F)cccc3F)cn2)CCO1` [Example 35]: the IC50 on NMDA NR1/NR2B receptor came out at 197 nM.

On to `CNC(=O)[C@@H]1CN(Cc2cnc(Oc3c(C)cccc3F)cn2)CCO1` [Example 36], for which the concentration for half-maximal inhibition (IC50) at NMDA NR1/NR2B receptor was 542 nM.

Consider `CCN(CC)CC(=O)Nc1c(C)cccc1C` [Lidocaine, reference compound], for which the inhibition at 1000 µM on Nav1.6 channel (read-out: maximum inhibition at P1 (not normalized)) was in the range of 46.4 to 47.2%. The “inhibition of evoked Nav1.6 currents” value at Nav1.6 channel (reference compound, FIG. 2) was “inhibited evoked currents in a concentration and use dependent manner”.

In the case of `CCCCNc1ccc(C(=O)OCCN(C)C)cc1` [Tetracaine, reference compound], the “state-dependent inhibition of Nav1.6” value at Nav1.6 channel (FIG. 1) was “much stronger at depolarized potentials than at hyperpolarized potential”.
